These results are taken from patent publication US5256788A, “Moranoline derivatives and their production and the use of moranoline and its derivatives as a stabilizing agent for enzymes” (Nippon Shinyaku Co. Ltd., priority 1989, dated 1993).

The target in this assay is T1, glucoamylase (Rhizopus arrhizus, UniProt P07683).
T1 construct: maltose substrate
The experiment in a line: Stabilization of GA (aqueous solution) by moranoline, N-methylmoranoline. It is filed as biochemical, Rhizopus niveus. As for the experimental part:
As the enzyme, Rhizopus niveus-derived reagent glucoamylase manufactured by Seikagaku Kogyo Co., Ltd. was used.
After 5 mg of the enzyme was dissolved in 1 ml of 0.1M acetate buffer solution (pH 5.0), moranoline and N-methylmoranoline were dissolved in the solution in a concentration of 6000 μg/ml. The solution was charged in a test tube with a screw stopper followed by incubation at 50° C. Each enzyme solution was diluted with 0.1M acetate buffer solution (pH 5.0) to 100-fold and 100 μl of the dilution was taken. After 400 μl of 5% maltose solution (0.05M acetate buffer solution, pH 4.6) was added thereto, the mixture was reacted at 40° C. for 20 minutes. […] Thereafter, the system was ice cooled and absorbency was measured at 500 nm to determine the glucose amount. […] When the initial enzyme activity (amount of glucose produced) was made […], relative enzyme activity was determined. […]
After 5 mg of the enzyme was dissolved in 1 ml of 0.1M acetate buffer solution (pH 5.0), moranoline and N-methylmoranoline were dissolved in the solution in a concentration of 6000 μg/ml. […] Thereafter, the system was ice cooled and absorbancy was measured at 500 nm to determine the glucose amount. […] When the initial enzyme activity (amount of glucose produced) was made 100, relative enzyme activity was determined. […]

Structures are written as SMILES.

T1 sequence (P07683 26-604): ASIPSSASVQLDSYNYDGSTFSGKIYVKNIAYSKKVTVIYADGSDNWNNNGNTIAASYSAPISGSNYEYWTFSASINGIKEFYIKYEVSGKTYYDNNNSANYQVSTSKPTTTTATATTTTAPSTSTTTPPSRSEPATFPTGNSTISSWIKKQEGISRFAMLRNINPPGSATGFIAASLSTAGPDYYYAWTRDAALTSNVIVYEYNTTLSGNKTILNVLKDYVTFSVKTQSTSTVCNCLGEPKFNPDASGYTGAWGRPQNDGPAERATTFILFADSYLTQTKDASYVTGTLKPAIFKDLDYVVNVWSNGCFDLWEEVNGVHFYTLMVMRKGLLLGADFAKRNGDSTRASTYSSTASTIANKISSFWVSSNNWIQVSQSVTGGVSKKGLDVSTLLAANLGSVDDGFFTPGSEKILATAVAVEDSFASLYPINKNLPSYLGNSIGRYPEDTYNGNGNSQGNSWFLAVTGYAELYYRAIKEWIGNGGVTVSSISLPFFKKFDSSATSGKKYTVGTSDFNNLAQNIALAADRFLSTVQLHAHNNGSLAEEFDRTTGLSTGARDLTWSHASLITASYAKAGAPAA

Turning to `OC[C@H]1NC[C@H](O)[C@@H](O)[C@@H]1O` [moranoline], the “inhibition of the enzyme activity of glucoamylase” value is recorded as “inhibit the enzyme activity of glucoamylase”.
